Results taken from US12583855B2, “RET selective inhibitor, preparation method therefor and use thereof” (SHOUYAO HOLDINGS (BEIJING) CO., LTD., priority 2019, dated 2026).
Residue numbers refer to the chain shown, from its start. pIC50: −log10 of the molar value.

Assays:
VEGFR2 = VEGFR2 (Homo sapiens, UniProt P35968); experiment: In vitro enzymatic activity assay on VEGFR2 (HTRF); format: biochemical; conditions: GST-VEGFR2 0.1 nM, ATP 2.5 μM
In short: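 GST-VEGFR2 (0.1 nM final) with 2.5 μM ATP and 1 μM TK peptide substrate in HEPES pH 7.5 buffer with Mg²⁺/Mn²⁺, 1.5 h at 23 °C. HTRF read-out (665/620 nm ratio) after adding TK antibody and streptavidin-XL665. IC50 from 7-point, 5-fold dilution series.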

[1] = Pharmacokinetic data of compounds in male SD rats; format: in vivo; conditions: rat, po, intragastric, 5 mg/kg, suspension MC 0.5%, plasma
Protocol: 6. Pharmacokinetic Data of Compounds
Male SD rats (Beijing Vital River Laboratory Animal Technology Co., Ltd) were divided into groups. 3 in each group, received intragastric administration with the suspension of the test sample (5 mg/kg, suspensions MC 0.5%), respectively. Animals were fasted overnight prior to the experiment from 10 h before dosing to 4 h after dosing. Blood was collected 0.25, 0.5, 1, 2, 4, 6, 8, and 24 h after administration, respectively. After isoflurane anesthesia using a small animal anesthesia machine, 0.3 mL of whole blood samples was taken through the fundus venous plexus, placed in a heparin anticoagulant tube, and were centrifuged at 4° C. 4000 rpm for 5 min plasma was transferred to the centrifuge tube, and stored at −80° C. until analysis. Samples in the plasma were extracted using protein precipitation and the extracts were analyzed by LC/MS.

TT cells = experiment: TT cell proliferation activity (Cell-Titer Glo); format: cell-based; conditions: TT human thyroid carcinoma cells, 120 h
Protocol: 4. Determination of TT Cell Proliferation Activity of Compounds
TT cells, a human thyroid carcinoma cell line, were cultured in Ham's F-12K medium supplemented with 15% fetal bovine serum (FBS, purchased from Biological Industries, BI) and 1% penicillin/streptomycin double antibody (P/S, purchased from Life Technology) under conditions of 37° C. and 5% CO2. TT cells were plated in a 96-well plate (#3917 purchased from Corning) at a concentration of 5000 cells/195 μL/well the day before compound was detected. The compounds were diluted 3-fold with 100% DMSO starting from 10 mM (10 concentrations in total) after 24 h, and 2 μL of each concentration was diluted in 48 μL of Ham's F-12K medium. 5 μL of each diluted compound was added to the plated Cell suspension, the compound and cells were co-incubated in a cell incubator for 120 h (5 days), after the medium was aspirated. 25 μL of Cell-Titer Glo (G7570, purchased from Promega) reagent was added and re-incubated for 5-10 min. Fluorescence value was then read on Envision and the data were calculated using GraphPad Prism software to obtain IC50 values for inhibition of cell proliferation by the compounds.

RET^WT = target: T1, RET^WT (Homo sapiens, UniProt P07949); experiment: In vitro enzymatic activity assay on RET^WT (HTRF); format: biochemical; conditions: GST-RET^WT (658-1114 aa) 0.5 nM, ATP 25 μM
T1 construct: GST-RET^WT (658-1114 aa, final concentration of 0.5 nM)
T1 sequence (P07949 658-1114): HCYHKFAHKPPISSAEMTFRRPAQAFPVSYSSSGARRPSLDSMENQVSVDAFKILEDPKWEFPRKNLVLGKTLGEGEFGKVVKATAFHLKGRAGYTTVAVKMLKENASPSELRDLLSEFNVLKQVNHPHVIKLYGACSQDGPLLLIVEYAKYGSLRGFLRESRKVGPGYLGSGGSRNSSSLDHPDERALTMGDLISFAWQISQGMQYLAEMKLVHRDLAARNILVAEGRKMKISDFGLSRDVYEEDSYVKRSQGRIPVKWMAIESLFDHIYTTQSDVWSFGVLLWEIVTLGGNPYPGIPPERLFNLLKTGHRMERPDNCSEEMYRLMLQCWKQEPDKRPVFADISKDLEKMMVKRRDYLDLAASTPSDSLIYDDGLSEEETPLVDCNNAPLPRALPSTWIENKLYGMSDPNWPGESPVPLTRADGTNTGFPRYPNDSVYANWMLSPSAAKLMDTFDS
In short: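 Reaction run 2 h at 23 °C in HEPES pH 7.5 buffer with Na3VO4, MgCl2, DTT, Tween 20 and BSA; compounds tested at 7 concentrations (5-fold serial dilution in DMSO from 0.2 mM stock). HTRF detection with TK antibody and streptavidin-XL665; IC50 from curve fitting.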

RET^V804M = target: T2, RET^V804M (Homo sapiens, UniProt P07949, V804M); experiment: In vitro enzymatic activity assay on RET^V804M (HTRF); format: biochemical; conditions: GST-RET^V804M (658-1114 aa) 0.02 nM, ATP 1.5 μM
T2 construct: GST-RET^V804M (658-1114 aa, final concentration of 0.02 nM)
T2 sequence (P07949 658-1114 V804M): T1 sequence (P07949 658-1114) with V147M

Chain of VEGFR2 (P35968 20-1356): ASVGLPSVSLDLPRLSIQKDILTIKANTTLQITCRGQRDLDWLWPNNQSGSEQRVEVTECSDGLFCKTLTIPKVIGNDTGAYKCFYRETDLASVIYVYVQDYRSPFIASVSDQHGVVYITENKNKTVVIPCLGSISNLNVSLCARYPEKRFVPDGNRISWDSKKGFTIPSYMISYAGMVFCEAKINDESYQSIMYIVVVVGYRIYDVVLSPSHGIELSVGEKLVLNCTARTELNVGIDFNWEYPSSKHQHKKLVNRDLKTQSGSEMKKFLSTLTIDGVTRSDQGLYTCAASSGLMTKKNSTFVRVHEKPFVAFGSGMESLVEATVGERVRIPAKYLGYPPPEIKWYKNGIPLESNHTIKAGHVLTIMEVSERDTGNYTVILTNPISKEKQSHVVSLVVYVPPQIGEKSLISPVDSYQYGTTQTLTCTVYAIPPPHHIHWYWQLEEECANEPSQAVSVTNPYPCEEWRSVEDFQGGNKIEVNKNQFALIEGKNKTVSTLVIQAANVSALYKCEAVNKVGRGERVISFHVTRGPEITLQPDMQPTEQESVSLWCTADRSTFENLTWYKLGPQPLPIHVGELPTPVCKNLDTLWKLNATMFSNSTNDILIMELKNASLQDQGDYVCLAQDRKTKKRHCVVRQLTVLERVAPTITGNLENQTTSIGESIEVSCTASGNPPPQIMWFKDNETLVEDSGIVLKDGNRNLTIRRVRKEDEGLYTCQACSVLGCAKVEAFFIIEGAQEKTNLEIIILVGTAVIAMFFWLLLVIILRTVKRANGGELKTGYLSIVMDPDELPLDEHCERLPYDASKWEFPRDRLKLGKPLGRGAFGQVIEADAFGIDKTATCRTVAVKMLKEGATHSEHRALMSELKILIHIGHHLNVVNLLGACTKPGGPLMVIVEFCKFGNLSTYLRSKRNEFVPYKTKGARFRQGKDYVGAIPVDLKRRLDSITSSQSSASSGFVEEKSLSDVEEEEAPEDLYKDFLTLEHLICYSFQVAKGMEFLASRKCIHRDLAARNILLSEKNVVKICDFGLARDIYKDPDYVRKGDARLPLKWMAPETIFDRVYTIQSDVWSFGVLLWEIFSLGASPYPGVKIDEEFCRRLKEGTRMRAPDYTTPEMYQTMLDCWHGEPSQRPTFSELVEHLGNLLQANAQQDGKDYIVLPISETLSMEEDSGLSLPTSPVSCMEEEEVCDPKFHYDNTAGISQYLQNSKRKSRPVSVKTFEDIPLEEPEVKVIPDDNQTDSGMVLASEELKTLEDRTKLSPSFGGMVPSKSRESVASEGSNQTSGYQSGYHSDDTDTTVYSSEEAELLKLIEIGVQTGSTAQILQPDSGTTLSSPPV

| AUC(0-inf) [1] [ng·h/mL] | Cmax [1] [ng/mL] | Tmax [1] [h] | half-life [1] [h] | SMILES | pIC50 (VEGFR2) | pIC50 (TT cells) | pIC50 (RET^WT) | pIC50 (RET^V804M) |
| --- | --- | --- | --- | --- | --- | --- | --- | --- |
| 15300 | 1490 | 4 | 3.38 | CSc1ccc(CN2CCN(c3ccc(-c4cc(-c5cnn(C)c5)cn5ncc(C#N)c45)cn3)CC2)cn1 [Example 10, 6-(1-methyl-1Hpyrazol-4-yl)-4-(6-(4-((6-(methylthio)pyridin-3-yl)methyl)piperazin-1-yl)pyridin-3-yl)pyrazolo[1,5-a]pyridine-3-carbonitrile] | 7.86 | 7.62 | – | – |
| 6650 | 1330 | 1.17 | 3.56 | Cn1cc(-c2cc(-c3ccc(N4CCN(Cc5cccc(S(C)(=O)=O)c5)CC4)nc3)c3c(C#N)cnn3c2)cn1 [Example 15, 6-(1-methyl-1Hpyrazol-4-yl)-4-(6-(4-(3-(methylsulfonyl)benzyl)piperazin-1-yl)pyridin-3-yl)pyrazolo[1,5-a]pyridine-3-carbonitrile] | 7.93 | 7.75 | – | – |
| – | – | – | – | Cn1cc(-c2cc(-c3ccc(N4CC5CC(C4)N5Cc4ccc(S(C)(=O)=O)cn4)nc3)c3c(C#N)cnn3c2)cn1 [Example 79, 6-(1-(methyl)-1Hpyrazol-4-yl)-4-(6-(6-((5-(methylsulfonyl)pyridin-2-yl)methyl)-3,6-diazabicyclo[3.1.1]heptan-3-yl)pyridin-3-yl)pyrazolo[1,5-a]pyridine-3-carbonitrile] | 8.28 | 7.67 | 9.48 | 9.19 |
| – | – | – | – | CS(=O)(=O)c1ccc(CN2C3CC2CN(c2ccc(-c4cc(-c5cnn(C(F)F)c5)cn5ncc(C#N)c45)cn2)C3)cn1 [Example 77, 6-(1-(difluoromethyl)-1Hpyrazol-4-yl)-4-(6-(6-((6-(methylsulfonyl)pyridin-3-yl)methyl)-3,6-diazabicyclo[3.1.1]heptan-3-yl)pyridin-3-yl)pyrazolo[1,5-a]pyridine-3-carbonitrile] | 8.12 | 7.64 | 9.33 | 9.10 |
| – | – | – | – | CS(=O)(=O)c1cccc(CN2C3CC2CN(c2ccc(-c4cc(N5CC(F)(F)C5)cn5ncc(C#N)c45)cn2)C3)c1 [Example 64, 6-(3,3-difluoroazetidin-1-yl)-4-(6-(6-(3-(methylsulfonyl)benzyl)-3,6-diazabicyclo[3.1.1]heptan-3-yl)pyridin-3-yl)pyrazolo[1,5-a]pyridine-3-carbonitrile] | 7.81 | 7.37 | 9.31 | 8.77 |
| – | – | – | – | Cn1cc(-c2cc(-c3ccc(N4CC5CC(C4)N5Cc4ccc(S(C)(=O)=O)nc4)nc3)c3c(C#N)cnn3c2)cn1 [Example 76, 6-(1-(methyl)-1Hpyrazol-4-yl)-4-(6-(6-((6-(methylsulfonyl)pyridin-3-yl)methyl)-3,6-diazabicyclo[3.1.1]heptan-3-yl)pyridin-3-yl)pyrazolo[1,5-a]pyridine-3-carbonitrile] | 8.55 | 7.78 | 9.53 | 9.32 |
| – | – | – | – | CS(=O)(=O)c1ccccc1CN1C2CC1CN(c1ccc(-c3cc(-c4cnn(C(F)F)c4)cn4ncc(C#N)c34)cn1)C2 [Example 56, 6-(1-difluoromethyl-1Hpyrazol-4-yl)-4-(6-(6-(2-(methylsulfonyl)benzyl)-3,6-diazabicyclo[3.1.1]heptan-3-yl)pyridin-3-yl)pyrazolo[1,5-a]pyridine-3-carbonitrile] | 7.23 | 7.40 | 10.10 | 8.75 |
| – | – | – | – | COc1ccc(CN2CCN(c3ccc(-c4cc(N5CC(C#N)C5)cn5ncc(C#N)c45)cn3)CC2)cn1 [Example 32, 6-(3-cyanoazetidin-1-yl)-4-(6-(4-((6-methoxypyridin-3-yl)methyl)piperazin-1-yl)pyridin-3-yl)pyrazolo[1,5-a]pyridine-3-carbonitrile] | 7.54 | 7.31 | 9.10 | 8.50 |
| – | – | – | – | CS(=O)(=O)c1cccc(CN2CCN(c3ccc(-c4cc(-c5cnn(C(F)F)c5)cn5ncc(C#N)c45)cn3)CC2)c1 [Example 47, 6-(1-difluoromethyl-1Hpyrazol-4 yl)-4-(6-(4-(3-(methylsulfonyl)benzyl)piperazin-1-yl)pyridin-3-yl)pyrazolo[1,5-a]pyridine-3-carbonitrile] | 7.77 | 7.27 | 9.46 | 8.61 |
| 42700 | 3790 | 4 | 4.08 | Cn1cc(-c2cc(-c3ccc(N4CCN(Cc5ccc(S(C)(=O)=O)cc5)CC4)nc3)c3c(C#N)cnn3c2)cn1 [Example 16, 6-(1-methyl-1Hpyrazol-4-yl)-4-(6-(4-(4-(methylsulfonyl)benzyl)piperazin-1-yl)pyridin-3-yl)pyrazolo[1,5-a]pyridine-3-carbonitrile] | 8.05 | 7.44 | – | – |
| – | – | – | – | CS(=O)(=O)c1cccc(CN2C3CC2CN(c2ccc(-c4cc(-c5cnn(C(F)F)c5)cn5ncc(C#N)c45)cn2)C3)c1 [Example 55, 6-(1-difluoromethyl-1Hpyrazol-4-yl)-4-(6-(6-(3-(methylsulfonyl)benzyl)-3,6-diazabicyclo[3.1.1]heptan-3-yl)pyridin-3-yl)pyrazolo[1,5-a]pyridine-3-carbonitrile] | 7.71 | 7.81 | 9.96 | 9.01 |
| – | – | – | – | Cn1cc(-c2cc(-c3cnc(N4CC5CC(C4)N5Cc4ccc(S(C)(=O)=O)cc4)cn3)c3c(C#N)cnn3c2)cn1 [Example 41, 6-(1-methyl-1Hpyrazol-4-yl)-4-(5-(6-(4-(methylsulfonyl)benzyl)-3,6-diazabicyclo[3.1.1]heptan-3-yl)pyrazin-2-yl)pyrazolo[1,5-a]pyridine-3-carbonitrile] | 7.76 | 7.74 | 9.45 | 8.98 |

| SMILES | AUC(0-inf) [1] [ng·h/mL] | Cmax [1] [ng/mL] | Tmax [1] [h] | half-life [1] [h] | pIC50 (VEGFR2) | pIC50 (TT cells) | pIC50 (RET^WT) | pIC50 (RET^V804M) |
| --- | --- | --- | --- | --- | --- | --- | --- | --- |
| CS(=O)(=O)c1ccc(CN2C3CC2CN(c2ccc(-c4cc(-c5cnn(C(F)F)c5)cn5ncc(C#N)c45)cn2)C3)cc1 [Example 45, 6-(1-difluoromethyl-1Hpyrazol-4-yl)-4-(6-(6-(4-(methylsulfonyl)benzyl)-3,6-diazabicyclo[3.1.1]heptan-3-yl)pyridin-3-yl) pyrazolo[1,5-a] pyridine-3-carbonitrile] | 27500 | 3560 | 1.83 | 3.21 | 8.30 | 7.64 | 9.80 | 9.09 |
